For assay [1], the system named is P. aeruginosa (ΔmexAB-oprM). The assay is described as follows: Broth microdilution MIC in iron-depleted CAMHB (IDM). In kind it is cell-based. The settings on record: Pseudomonas aeruginosa; iron-depleted CAMHB (IDM); […]; read-out: Minimum inhibitory concentration, P. aeruginosa ΔmexAB-oprM.
Assay [2] concerns P. aeruginosa ATCC 35151. Briefly: microbe, parasite or virus in culture. Type of assay: cell-based. Conditions: Pseudomonas aeruginosa, ATCC35151, read-out: Minimum inhibitory concentration, P. aeruginosa ATCC 35151.
The test system of assay [3] is P. aeruginosa CDC-0110. Briefly: microbe, parasite or virus in culture. In kind it is cell-based. The settings on record: Pseudomonas aeruginosa, CDC0110, read-out: Minimum inhibitory concentration, P. aeruginosa CDC-0110.
The test system of assay [4] is B. humptydooensis ATCC BAA-2767. The assay is described as follows: microbe, parasite or virus in culture. In kind it is cell-based. Conditions: Burkholderia humptydooensis, ATCCBAA2767, read-out: Minimum inhibitory concentration (MIC), B. humptydooensis ATCC BAA-2767.
Assay [5] deals with A. baumannii CDC-0083. The assay is described as follows: microbe, parasite or virus in culture. In kind it is cell-based. The settings on record: Acinetobacter baumannii, CDC0083, read-out: MIC, A. baumannii CDC-0083.
For assay [6], the system named is N. gonorrhoeae WHO X. Briefly: Liquid broth MIC in Fastidious broth. Conditions: Neisseria gonorrhoeae, read-out: Minimum Inhibitory Concentration (MIC), N. gonorrhoeae WHO X.
Method: Liquid broth-based assays were used for antibacterial testing of PBP inhibitors in Neisseria gonorrhoeae. Briefly, cryo-preserved bacterial cultures of clinical strains were streaked for isolation on Chocolate Agar (72 g/L (2×) GC Agar Base (BD #228950) and 2% (2×) Hemoglobin was autoclaved at 121° C. for 20 minutes to sterilize. Once cooled to ˜50° C. the 2×GC Agar Base and 2× Hemoglobin solutions are combined and 1% IsoVitaleX Enrichment (BD #211876) was added to the solution). Strains were incubated at 36° C. and 5% CO2 to allow growth of colonies, 24 hours before inoculum preparation. 2-fold serial dilutions of test compounds were conducted in a 96 well plate with a final volume of 75 μL per well at 2-fold the final desired concentration in Fastidious broth (Remel #R07664). For preparation of assay inoculum, a direct suspension was prepared by aseptically swabbing 10-15 colonies from agar plates into culture tubes containing 2 mL of fresh sterile saline. After the dilution plates were set up, direct suspensions were then diluted in a cuvette containing sterile saline and the optical density was measured at 600 nm. Inocula were diluted such that 75 μL of this culture in Fastidious broth results in a starting bacterial concentration of 5×10^5 CFU/mL when added to the dilution plates. The plates were incubated for ˜24 hours at 36° C. and 5% CO2.
For assay [7], the system named is N. gonorrhoeae WHO G. Briefly: Liquid broth MIC in Fastidious broth. The settings on record: Neisseria gonorrhoeae, read-out: Minimum Inhibitory Concentration (MIC), N. gonorrhoeae WHO G.
Method: Additional antibacterial testing of the series was performed in 8 reference strains of N. gonorrhoeae (ATCC 49226, FA1090, MS 11, WHO G, WHO L, WHO M, WHO K, WHO X, WHO Z, WHO Q, CDC-0197). ATCC 49226, FA1090, MS11, WHO G, WHO L, and WHO M produce wild type or wild-type like PBP2. WHO K, WHO X, WHO Z, WHO Q, and CDC-0197 produce mosaic PBP2. Liquid broth-based assays were used for antibacterial testing of PBP inhibitors in Neisseria gonorrhoeae. Briefly, cryo-preserved bacterial cultures of clinical strains were streaked for isolation on Chocolate Agar (72 g/L (2×) GC Agar Base (BD #228950) and 2% (2×) Hemoglobin was autoclaved at 121° C. for 20 minutes to sterilize. Once cooled to ˜50° C. the 2×GC Agar Base and 2× Hemoglobin solutions are combined and 1% IsoVitaleX Enrichment (BD #211876) was added to the solution). Strains were incubated at 36° C. and 5% CO2 to allow growth of colonies, 24 hours before inoculum preparation. 2-fold serial dilutions of test compounds were conducted in a 96 well plate with a final volume of 75 μL per well at 2-fold the final desired concentration in Fastidious broth (Remel #R07664). For preparation of assay inoculum, a direct suspension was prepared by aseptically swabbing 10-15 colonies from agar plates into culture tubes containing 2 mL of fresh sterile saline. After the dilution plates were set up, direct suspensions were then diluted in a cuvette containing sterile saline and the optical density was measured at 600 nm. Inocula were diluted such that 75 μL of this culture in Fastidious broth results in a starting bacterial concentration of 5×10^5 CFU/mL when added to the dilution plates. The plates were incubated for ˜24 hours at 36° C. and 5% CO2.
For assay [8], the system named is N. gonorrhoeae WHO Z. The assay is described as follows: Liquid broth MIC in Fastidious broth. The settings on record: Neisseria gonorrhoeae, read-out: Minimum Inhibitory Concentration (MIC), N. gonorrhoeae WHO Z.
Assay [9] concerns N. gonorrhoeae ATCC 49226. Briefly: Liquid broth MIC in Fastidious broth. Conditions: Neisseria gonorrhoeae, ATCC49226, read-out: Minimum Inhibitory Concentration (MIC), N. gonorrhoeae ATCC 49226.

≈ marks a conversion by molar mass, not a printed value.

Turning to `O=C(NCCCN1CCN(C(=O)NC(C(=O)N[C@H]2Cc3ccc(F)c(C(=O)O)c3OB2O)c2cc(F)c(O)c(O)c2Cl)C(=O)C1=O)c1cc(F)ncc1F` (mixture of isomers) [Example 405], the MIC was < 1 µg/mL in assay [1]; < 1 µg/mL in assay [2]; 2 to 4 µg/mL in assay [3]; 2 to 4 µg/mL in assay [4]; < 1 µg/mL in assay [5].

Take `O=C(NCCCN1CCN(C(=O)N[C@@H](C(=O)N[C@H]2Cc3ccc(F)c(C(=O)O)c3OB2O)c2cc(F)c(O)c(O)c2Cl)C(=O)C1=O)c1cc(F)nc(F)c1` (racemic) [Example 401]: the MIC in [1] is < 1 µg/mL; in assay [2] it was < 1 µg/mL; in [3] it was < 1 µg/mL; in assay [4] it was > 128 µg/mL; in [5], 2 to 4 µg/mL (≈ 2.56 to 5.12 µM).

With `CS(=O)(=O)N1CCN(C(=O)N[C@H](C(=O)N[C@H]2Cc3cccc(C(=O)O)c3OB2O)c2ccc(P(=O)(O)O)cc2)C1=O` (single isomer, unassigned) [Example 5], the MIC in assay [6] is 4 to 8 µg/mL (≈ 6.55 to 13.1 µM); in assay [7] it was < 1 µg/mL; in [8] it was < 1 µg/mL; in assay [9], < 1 µg/mL.

On to `O=C(O)c1c(F)ccc2c1OB(O)[C@@H](NC(=O)[C@@H](NC(=O)N1CCN(C3CCN(C(=O)Nc4ccc(O)cc4)CC3)C1=O)c1cc(F)c(O)c(O)c1Cl)C2` (single isomer, unassigned) [Example 467], for which the MIC in assay [1] was < 1 µg/mL; in [2], < 1 µg/mL; in assay [3] it was < 1 µg/mL; in assay [4], 2 to 4 µg/mL (≈ 2.59 to 5.18 µM).

`O=C(O)c1c(F)ccc2c1OB(O)[C@@H](NC(=O)[C@H](NC(=O)N1CCN(C3CCN(C(=O)Nc4ccc(O)cc4)CC3)C1=O)c1cc(F)c(O)c(O)c1Cl)C2` (single isomer, unassigned) [Example 468]: the MIC in assay [1], in assay [2], in assay [3] and in assay [4] was < 1 µg/mL each time.

`CCN1CCN(C(=O)NC(C(=O)N[C@H]2Cc3cccc(C(=O)O)c3OB2O)c2ccc(P(=O)(O)O)cc2F)C(=O)C1=O` (stereo partly drawn) [Example 1, (3R)-3-(2-(4-ethyl-2,3-dioxopiperazine-1-carboxamido)-2-(2-fluoro-4-phosphonophenyl)acetamido)-2-hydroxy-3,4-dihydro-2H-benzo[e][1,2]oxaborinine-8-carboxylic acid]: the MIC in assay [6] was 1 to 2 µg/mL (≈ 1.65 to 3.3 µM); in assay [7], < 1 µg/mL; in assay [8], < 1 µg/mL; in assay [9], < 1 µg/mL.

For the compound `CCN1CCN(C(=O)NC(C(=O)N[C@H]2Cc3cccc(C(=O)O)c3OB2O)c2cc(P(=O)(O)O)ccc2F)C(=O)C1=O` (stereo partly drawn) [Example 2, (3R)-3-(2-(4-ethyl-2,3-dioxopiperazine-1-carboxamido)-2-(2-fluoro-5-phosphonophenyl)acetamido)-2-hydroxy-3,4-dihydro-2H-benzo[e][1,2]oxaborinine-8-carboxylic acid], the MIC in assay [6] was 16 to 32 µg/mL (≈ 26.4 to 52.8 µM); in [7] it was 1 to 2 µg/mL (≈ 1.65 to 3.3 µM); in assay [8], 4 to 8 µg/mL (≈ 6.6 to 13.2 µM); in assay [9], 4 to 8 µg/mL (≈ 6.6 to 13.2 µM).

Take `NCCN1CCN(C(=O)NC(C(=O)N[C@H]2Cc3cccc(C(=O)O)c3OB2O)c2ccc(P(=O)(O)O)cc2)C(=O)C1=O` (stereo partly drawn) [Example 3, (3R)-3-(2-(4-(2-aminoethyl)-2,3-dioxopiperazine-1-carboxamido)-2-(4-phosphonophenyl)acetamido)-2-hydroxy-3,4-dihydro-2H-benzo[e][1,2]oxaborinine-8-carboxylic acid]: the MIC is 4 to 8 µg/mL (≈ 6.63 to 13.3 µM) in assay [6], < 1 µg/mL in assay [7], 1 to 2 µg/mL (≈ 1.66 to 3.32 µM) in assay [8] and < 1 µg/mL in [9].

As to `O=C(O)c1cccc2c1OB(O)[C@@H](NC(=O)C(NC(=O)N1CCN(CC(F)(F)F)C(=O)C1=O)c1ccc(P(=O)(O)O)cc1)C2` (stereo partly drawn) [Example 4, (3R)-3-(2-(2,3-dioxo-4-(2,2,2-trifluoroethyl)piperazine-1-carboxamido)-2-(4-phosphonophenyl)acetamido)-2-hydroxy-3,4-dihydro-2H-benzo[e][1,2]oxaborinine-8-carboxylic acid], the MIC is 4 to 8 µg/mL (≈ 6.23 to 12.5 µM) in assay [6], < 1 µg/mL in assay [7], 1 to 2 µg/mL (≈ 1.56 to 3.11 µM) in assay [8] and < 1 µg/mL in [9].

On to `O=C(NCCCN1CCN(C(=O)NC(C(=O)N[C@H]2Cc3ccc(F)c(C(=O)O)c3OB2O)c2cc(F)c(O)c(O)c2Cl)C(=O)C1=O)c1ccc(F)c(O)c1Cl` (stereo partly drawn) [Example 412, (3R)-3-(2-(4-(3-(2-chloro-4-fluoro-3-hydroxybenzamido)propyl)-2,3-dioxopiperazine-1-carboxamido)-2-(2-chloro-5-fluoro-3,4-dihydroxyphenyl)acetamido)-7-fluoro-2-hydroxy-3,4-dihydro-2H-benzo[e][1,2]oxaborinine-8-carboxylic acid], for which the MIC was < 1 µg/mL in assay [2], < 1 µg/mL in assay [3], 2 to 4 µg/mL (≈ 2.46 to 4.92 µM) in assay [4] and 8 to 16 µg/mL (≈ 9.85 to 19.7 µM) in assay [5].

Consider `O=C(O)c1c(F)ccc2c1OB(O)[C@@H](NC(=O)C(NC(=O)N1CCN(C3CCN(C(=O)c4ccc(O)cc4)CC3)C(=O)C1=O)c1cc(F)c(O)c(O)c1Cl)C2` (stereo partly drawn) [Example 427, (3R)-3-(2-(2-chloro-5-fluoro-3,4-dihydroxyphenyl)-2-(4-(1-(4-hydroxybenzoyl)piperidin-4-yl)-2,3-dioxopiperazine-1-carboxamido)acetamido)-7-fluoro-2-hydroxy-3,4-dihydro-2H-benzo[e][1,2]oxaborinine-8-carboxylic acid], for which the MIC in assay [1], in assay [2], in [3] and in [4] was < 1 µg/mL throughout.

For the compound `O=C(O)c1c(F)ccc2c1OB(O)[C@@H](NC(=O)C(NC(=O)N1CCN(C3CCN(C(=O)Cc4cccc(O)c4)CC3)C(=O)C1=O)c1cc(F)c(O)c(O)c1Cl)C2` (stereo partly drawn) [Example 474, (3R)-3-(2-(2-chloro-5-fluoro-3,4-dihydroxyphenyl)-2-(4-(1-(2-(3-hydroxyphenyl)acetyl)piperidin-4-yl)-2,3-dioxopiperazine-1-carboxamido)acetamido)-7-fluoro-2-hydroxy-3,4-dihydro-2H-benzo[e][1,2]oxaborinine-8-carboxylic acid], the MIC in assay [1], in assay [2], in assay [3] and in assay [4] was < 1 µg/mL in each case.

For `O=C(O)c1c(F)ccc2c1OB(O)[C@@H](NC(=O)C(NC(=O)N1CCN(CC3CCN(C(=O)c4cccc(O)c4)CC3)C(=O)C1=O)c1cc(F)c(O)c(O)c1Cl)C2` (stereo partly drawn) [Example 475, (3R)-3-(2-(2-chloro-5-fluoro-3,4-dihydroxyphenyl)-2-(4-((1-(3-hydroxybenzoyl)piperidin-4-yl)methyl)-2,3-dioxopiperazine-1-carboxamido)acetamido)-7-fluoro-2-hydroxy-3,4-dihydro-2H-benzo[e][1,2]oxaborinine-8-carboxylic acid], the MIC in assay [1] is < 1 µg/mL; in assay [2], < 1 µg/mL; in [3] it was < 1 µg/mL; in assay [4], 2 to 4 µg/mL (≈ 2.5 to 5 µM).

In the case of `O=C(O)c1c(F)ccc2c1OB(O)[C@@H](NC(=O)C(NC(=O)N1CCN(C3CCN(C(=O)c4ccc(O)cc4O)CC3)C(=O)C1=O)c1cc(F)c(O)c(O)c1Cl)C2` (stereo partly drawn) [Example 476, (3R)-3-(2-(2-chloro-5-fluoro-3,4-dihydroxyphenyl)-2-(4-(1-(2,4-dihydroxybenzoyl)piperidin-4-yl)-2,3-dioxopiperazine-1-carboxamido)acetamido)-7-fluoro-2-hydroxy-3,4-dihydro-2H-benzo[e][1,2]oxaborinine-8-carboxylic acid], the MIC in assay [1], in assay [2], in assay [3] and in [4] was < 1 µg/mL throughout.

With `O=C(O)c1c(F)ccc2c1OB(O)[C@@H](NC(=O)C(NC(=O)N1CCN(CC3CCN(C(=O)Nc4cccc(O)c4)CC3)C(=O)C1=O)c1cc(F)c(O)c(O)c1Cl)C2` (stereo partly drawn) [Example 477, (3R)-3-(2-(2-chloro-5-fluoro-3,4-dihydroxyphenyl)-2-(4-((1-((3-hydroxyphenyl)carbamoyl)piperidin-4-yl)methyl)-2,3-dioxopiperazine-1-carboxamido)acetamido)-7-fluoro-2-hydroxy-3,4-dihydro-2H-benzo[e][1,2]oxaborinine-8-carboxylic acid], the MIC in assay [1], in assay [2], in assay [3] and in assay [4] was < 1 µg/mL throughout.

In the case of `O=C(O)c1c(F)ccc2c1OB(O)[C@@H](NC(=O)C(NC(=O)N1CCN(C3CCN(C(=O)Nc4cccc(O)c4F)CC3)C(=O)C1=O)c1cc(F)c(O)c(O)c1Cl)C2` (stereo partly drawn) [Example 478, (3R)-3-(2-(2-chloro-5-fluoro-3,4-dihydroxyphenyl)-2-(4-(1-((2-fluoro-3-hydroxyphenyl)carbamoyl)piperidin-4-yl)-2,3-dioxopiperazine-1-carboxamido)acetamido)-7-fluoro-2-hydroxy-3,4-dihydro-2H-benzo[e][1,2]oxaborinine-8-carboxylic acid], the MIC in assay [1] is < 1 µg/mL; in assay [2] it was < 1 µg/mL; in [3], 2 to 4 µg/mL (≈ 2.44 to 4.88 µM); in assay [4], 8 to 16 µg/mL (≈ 9.77 to 19.5 µM).

(Values after patent US20240270762A1, “PENICILLIN-BINDING PROTEIN INHIBITORS” (priority 2021, published 2024).)
